Laboratory results from patent US10752584B2 (EMORY UNIVERSITY, priority 2016, dated 2020).
Entries after “also recorded” stand apart in the source; their conditions may differ. Read-outs that look alike come from different tables or passages of the source.

How the values were obtained:
[1] = test system: mitochondrial DNA (COXII gene) in HepG2 cells; assay: Mitochondrial toxicity assay in HepG2 cells: mitochondrial DNA; assay type: cell-based; details: for IC50: read-out: IC50 MtDNA
Source text: (§1) A real-time PCR assay to accurately quantify mitochondrial DNA content has been developed (see Stuyver L J, Lostia S, Adams M, Mathew J S, Pai B S, Grier J, Tharnish P M, Choi Y, Chong Y, Choo H, Chu C K, Otto M J, Schinazi R F. Antiviral activities and cellular toxicities of modified 2′,3′-dideoxy-2′,3′-didehydrocytidine analogs. Antimicrob. Agents Chemother. 2002; 46: 3854-60). This assay was used in all studies described in this application that determine the effect of compounds on mitochondrial DNA content. In this assay, low-passage-number HepG2 cells were seeded at 5,000 cells/well in collagen-coated 96-well plates. Test compounds were added to the medium to obtain final concentrations of 0 μM, 0.1 μM, 10 μM and 100 μM. On culture day 7, cellular nucleic acids were prepared by using commercially available columns (RNeasy 96 kit; Qiagen). […] The mitochondrial cytochrome c oxidase subunit II (COXII) gene and the β-actin or rRNA gene were amplified from 5 μl of the eluted nucleic acids using a multiplex Q-PCR protocol with suitable primers and probes for both target and reference amplifications. For COXII the following sense, probe and antisense primers were used, respectively: 5′-TGCCCGCCATCATCCTA-3′, 5′-tetrachloro-6-carboxyfluorescein-[…]-TAMRA-3′ and 5′-[…]-3′. For exon 3 of the β-actin gene (GenBank accession number E01094) the sense, probe, and antisense primers are 5′-GCGCGGCTACAGCTTCA-3′, 5′-6-[…]-3′ and 5′-[…]-3′, respectively. The primers and probes for the rRNA gene are commercially available from Applied Biosystems. Since equal amplification efficiencies are obtained for all genes, the comparative CT method was used to investigate potential inhibition of mitochondrial DNA synthesis. The comparative CT method uses arithmetic formulas in which the amount of target (COXII gene) is normalized to the amount of an endogenous reference (the β-actin or rRNA gene) and is relative to a calibrator (a control with no drug at day 7). The arithmetic formula for this approach is given by 2−ΔΔCT, where ΔΔCT is (CT for average target test sample CT for target control)−(CT for average reference test−CT for reference control) (see Johnson M R, K Wang, J B Smith, M J Heslin, R B Diasio. Quantitation of dihydropyrimidine dehydrogenase expression by real-time reverse transcription polymerase chain reaction. Anal. Biochem. 2000; 278:175-184). A decrease in mitochondrial DNA content in cells grown in the presence of drug indicated mitochondrial toxicity.
(§2) The effect of compounds 7 and 9 on the levels of mitochondrial and nuclear DNA, and lactic acid production was evaluated in HepG2 cells (14-day assay), and the data is tabulated below in Table 2: […]

[2] = test system: nuclear DNA in HepG2 cells; assay: Mitochondrial toxicity assay in HepG2 cells: nuclear DNA; assay type: cell-based
Source text: as §1, §2

HepG2 cells = assay: Lactic acid production in HepG2 cells; assay type: cell-based; details: 14-day assay, 10 μM
Protocol: To measure the effects of the compounds on lactic acid production, HepG2 cells from a stock culture were diluted and plated in 12-well culture plates at 2.5×10^4 cells per well. Various concentrations (0 μM, 0.1 μM, 1 μM, 10 μM and 100 μM) of compound were added, and the cultures were incubated at 37° C. in a humidified 5% CO2 atmosphere for 4 days. At day 4, the number of cells in each well was determined and the culture medium collected. The culture medium was then filtered, and the lactic acid content in the medium was determined using a colorimetric lactic acid assay (Sigma-Aldrich). Since lactic acid product can be considered a marker for impaired mitochondrial function, elevated levels of lactic acid production detected in cells grown in the presence of test compounds would indicate a drug-induced cytotoxic effect.
as §2

[3] = Cellular toxicity assay in human PBM cells; assay type: cell-based; details: human, human PBM cells, read-out: Cytotoxicity
Protocol: (§3) The toxicity of the compounds was assessed in Vero, human PBM, CEM (human lymphoblastoid), MT-2, and HepG2 cells, as described previously (see Schinazi R. F., Sommadossi J.-P., Saalmann V., Cannon D. L., Xie M.-Y., Hart G. C., Smith G. A. & Hahn E. F. Antimicrob. Agents Chemother. 1990, 34, 1061-67). Cycloheximide was included as positive cytotoxic control, and untreated cells exposed to solvent were included as negative controls. The cytotoxicity IC50 was obtained from the concentration-response curve using the median effective method described previously (see Chou T.-C. & Talalay P. Adv. Enzyme Regul. 1984, 22, 27-55; Belen'kii M. S. & Schinazi R. F. Antiviral Res. 1994, 25, 1-11).

human PBM = assay: Cellular toxicity assay in human PBM cells; assay type: cell-based; details: read-out: Cytotoxicity
Protocol: as §3

[4] = Cellular toxicity assay in Vero cells; assay type: cell-based; details: African green monkey, read-out: Cytotoxicity
Protocol: as §3

Vero = assay: Cellular toxicity assay in Vero cells; assay type: cell-based; details: read-out: Cytotoxicity
Protocol: as §3

[5] = Cellular toxicity assay in HepG2 cells; assay type: cell-based; details: human, read-out: Cytotoxicity
Protocol: as §3

wild type HBV = assay: Anti-HBV assay in AD-38 cell line; assay type: cell-based; details: Hepatitis B virus, AD-38 cells, HBV in culture supernatant; for EC50: read-out: Anti-HBV activity EC50
Protocol: The anti-HBV activity of the compounds was determined by treating the AD-38 cell line carrying wild type HBV under the control of tetracycline (see Ladner S. K., Otto M. J., Barker C. S., Zaifert K., Wang G. H., Guo J. T., Seeger C. & King R. W. Antimicrob. Agents Chemother. 1997, 41, 1715-20). Removal of tetracycline from the medium [Tet (−)] results in the production of HBV. The levels of HBV in the culture supernatant fluids from cells treated with the compounds were compared with that of the untreated controls. Control cultures with tetracycline [Tet (+)] were also maintained to determine the basal levels of HBV expression. 3TC was included as positive control.
The median effective concentrations (EC50) ranges of several of the compounds described herein against HBV are shown in Table 3: […]

HBV e antigen (HBeAg) = assay: HBeAg ELISA in HepAD38 cells (cccDNA-dependent marker); assay type: cell-based
Protocol: Production of secreted HBeAg is predominantly cccDNA-dependent in HepAD38 cells and therefore can serve as a surrogate marker for cccDNA (Ladner, S. K., Otto, M. J., Barker, C. S., Zaifert, K., Wang, G. H., Guo, J. T., Seeger, C., King, R. W. Antimicrob Agents Chemother 1997, 41, 1715-1720; Zhou T, Guo H, Guo J T, Cuconati A, Mehta A, Block T M. Antiviral Res. 2006; 72 (2): 116-24.). The effect on the levels of cccDNA formation was assessed using a cell-based assay that measures HBV e antigen (HBeAg) as a cccDNA-dependent marker in the HepAD38 system. HepAD38 cells were seeded at 50,000 cells/well in collagen-coated 96-well plates with DMEM/F12 medium (Life Technologies) supplemented with 10% heat-inactivated fetal bovine serum. Cells were treated with 0.3 μg/ml tetracycline as needed. Test compounds and controls were added to cells to a final concentration of 10 μM or in a dose response manner ranging from 0.001 to 10 μM. Medium and test compounds were replenished every 5 days in culture. Supernatants were harvested at day-14, clarified by centrifugation at 5000 rpm for 5 min, and stored at −70° C. until use. ELISA—Culture medium was diluted 1:15 in DMEM/F12 and the levels of HBeAg secreted in the culture medium were measured by using HBeAg ELISA kit (BioChain Institute Inc. Hayward, Calif.) according to the manufacturer's protocol. The concentration of compound that reduced levels of secreted HBeAg by 50% (EC50) was determined by linear regression.

HBV Cp149 = target: T1, HBV Cp149 (Hepatitis B virus genotype D subtype adw, UniProt P03147); assay: Capsid formation assay, electron micrographs; assay type: biochemical; details: 25 μM compound
T1 construct: hepatitis B virus core C-terminally truncated protein (HBV Cp149); made in house
Protocol: In the absence of compounds which disrupt capsid formation, hepatitis B virus core C-terminally truncated protein (HBV Cp149, protein isolated by reported methods [Zlotnick, A et al; Biochem 1996, 35, 7412-7421] normally assembles into an HBV Cp149 capsid. The purpose of this example was to determine whether putative active agents would disrupt capsid formation, and thus be active as anti-HBV agents. Putative active agents were incubated at a concentration of 25 μM for 1 h at 4° C. with HBV Cp149 at a concentration of 10 μM. Capsid assembly was then promoted by adding 300 mM NaCl, and storing the mixture overnight at 4°. Negative-stain electron micrographs were collected using a JEOL JEM-1400 120 kV electron microscope using uranyl acetate as a contrast agent.

HBV Cp149 capsids = target: T2, HBV Cp149 capsids (Hepatitis B virus genotype D subtype adw, UniProt P03147); assay: Disruption of already-formed capsids, electron micrographs; assay type: biochemical; details: 25 μM compound, overnight at 4°, FIG. 2-4
T2 construct: hepatitis B virus core C-terminally truncated protein (HBV Cp149); made in house
Protocol: The next question was whether these compounds could disrupt already-formed capsids. Accordingly, the capsids were formed as discussed above (incubation of isolated HBV Cp149 with 300 mM NaCl, stored overnight at 4°). Then, the capsids were incubated with the putative compound (overnight at 4°), and electron micrographs were then taken.

[6] = HepG2 cells, 14-day assay, 10 μM

T1 sequence (P03147 1-149): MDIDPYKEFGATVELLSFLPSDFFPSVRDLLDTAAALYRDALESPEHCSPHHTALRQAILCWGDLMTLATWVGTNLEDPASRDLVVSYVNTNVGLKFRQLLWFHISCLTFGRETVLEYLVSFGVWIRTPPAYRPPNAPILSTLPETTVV
T2 sequence (P03147 1-149): as above

**Q.** With `Nc1ccn([C@H]2CC[C@@H](CO)O2)c(=O)n1` [ddC, reference compound] as the molecule, how does the “MtDNA (% of control)” value [1] read?
**A.** 5.3 (5.0-5.8) % of control

**Q.** What about the “% inhibition MtDNA” value [1, 6] of the same molecule?
**A.** 97.4%

**Q.** What about the IC50 ([1]; HepG2 cells, 14-day assay) of the same molecule?
**A.** < 10 µM

**Q.** What about the IC50 ([2]; HepG2 cells, 14-day assay) of the same molecule?
**A.** < 10 µM

**Q.** What about the “% inhibition nDNA” value [2, 6] of the same molecule?
**A.** 52.4%

**Q.** And the “Lactic acid production (% of control)” value (HepG2 cells)?
**A.** 196 ± 73.0 % of control

**Q.** Which CC50 [3] does the source give for `O=C(Nc1ccc(F)c(F)c1)c1cc(S(=O)(=O)NCc2cn(C3CC3)nn2)ccc1F` [Compound 13, 5-(N-((1-Cyclopropyl-1H-1,2,3-triazol-4-yl)methyl)sulfamoyl)-N-(3,4-difluorophenyl)-2-fluorobenzamide] here?
**A.** > 100 µM

**Q.** What about the CC50 (human PBM) of the same molecule?
**A.** 64.8 µM

**Q.** And the CC50 [4]?
**A.** 55.6 µM

**Q.** What about the CC50 (Vero) of the same molecule?
**A.** 66 µM

**Q.** And the CC50 [5]?
**A.** > 100 µM

**Q.** What about the EC50 (wild type HBV) of the same molecule?
**A.** 0.1 to 0.9 µM

**Q.** And the “Anti-HBeAg activity, percentage in brackets under EC50” value (HBV e antigen (HBeAg); HepAD38 cells, day 14, concentration not printed in the table (method: 10 μM))?
**A.** (86%)

**Q.** What about the EC50 (HBV e antigen (HBeAg); Hepatitis B virus, HePAD38, 336 h, read-out: Anti-HBeAg activity EC50) of the same molecule?
**A.** < 10 µM

**Q.** What does the source list for `Nc1ccn([C@@H]2CS[C@H](CO)O2)c(=O)n1` [Compound 3TC, lamivudine, reference compound]?
**A.** MtDNA (% of control) [1, 6]: 130 (85.7-196) % of control; inhibition at 10 µM ([1]; Homo sapiens, HepG2, 336 h, read-out: % inhibition MtDNA): 8.8%; IC50 ([1]; Homo sapiens, HepG2, 336 h): > 10 µM; IC50 ([2]; Homo sapiens, 336 h, HepG2 cells, 14-day assay): > 10 µM; inhibition at 10 µM ([2]; Homo sapiens, HepG2, 336 h, read-out: % inhibition nDNA): 29.6%; Lactic acid production (% of control) (HepG2 cells): 94 ± 20.8 % of control; EC50 (wild type HBV): 0.1 to 0.9 µM; EC90 (wild type HBV; read-out: Anti-HBV activity EC90): 1 to 9 µM

**Q.** Which “Effect on capsid formation” value (HBV Cp149; 10 μM HBV Cp149, 300 mM NaCl, FIG. 1) does the source give for `CCOC(=O)C1=C(CN2CCOCC2)NC(c2nccs2)=NC1c1ccc(F)cc1Br` (stereo not shown) [GLS4, Morphothiadine mesilate] here?
**A.** misassembled hollow spheres; also recorded: capsid formation was disrupted

**Q.** And the “Size of the hollow spheres formed” value (HBV Cp149; 10 μM HBV Cp149, vehicle approximately 40 nm)?
**A.** 80-100 nm

**Q.** What about the “Effect on already-formed capsids” value (HBV Cp149 capsids) of the same molecule?
**A.** misassembled hollow spheres; also recorded: the capsids were disrupted
